Earlier results in patent US20210319872A1, “DRUG AND DEVICE COMBINATION PRODUCTS WITH IMPROVED SAFETY AND EFFICACY PROFILES” (priority 2016, published 2021).
Read-outs that look alike come from different tables or passages of the source.

CCCCCCCCc1ccc(CCC(N)(CO)CO)cc1 [Gilenya]
Increased liver enzymes (5 times ULN or greater (ALT, AST)): times ULN or greater (ALT, AST), 4.5%)
Increased liver enzymes (All elevations (ALT/GGT/AST)): 15%
Infectious disease (All infections): 72%
Abdominal pain (in vivo): 11%
Atrioventricular block (in vivo): Cardiovascular: Atrioventricular block (up to 4.7%),
Backache (in vivo): Musculoskeletal: Backache (10%), Pain, In Extremity (10%)
Bradyarrhythmia (in vivo): Bradyarrhythmia (3%.)
Cough (in vivo): 12%
Diarrhea (in vivo): 13%
Headache (in vivo): Neurologic: Headache (25%)
Herpesvirus infection (in vivo): Immunologic: Cryptococcosis, Herpesvirus infection (9%),
Influenza (in vivo): Immunologic: Influenza (11%)
Lymphocytopenia (Severe) (in vivo): Hematologic: Lymphocytopenia (Severe) (7%)
Pain, In Extremity (in vivo): Musculoskeletal: Backache (10%), Pain, In Extremity (10%)
Sinusitis (in vivo): 11%
Serious side effect, Dermatologic (listed without frequency): Dermatologic: Malignant melanoma
Serious side effect, Immunologic (listed without frequency): Immunologic: Cryptococcosis, Herpesvirus infection (9%),
Serious side effect, Neurologic (listed without frequency): Cryptococcal meningitis
Infectious disease (serious infections): 2.3%
Increased liver enzymes (up to 3 times ULN (ALT, AST)): 14%

COc1ccc2c3c1O[C@H]1C(=O)CC[C@H]4[C@@H](C2)N(C)CC[C@]314 [Hydrocodone, reference compound]
Abdominal pain (in vivo): Gastrointestinal: Abdominal pain (1% to less than 5%),
Constipation (in vivo): Constipation (3% to 11%), Nausea (7% to 10%), Vomiting (3% to
Difficulty swallowing (in vivo): Gastrointestinal: Difficulty swallowing (less than 1%)
Dizziness (in vivo): Neurologic: Dizziness (2% to 3%), Headache (2% to 4%),
Fatigue (in vivo): Other: Fatigue (1% to 4%)
Headache (in vivo): Neurologic: Dizziness (2% to 3%), Headache (2% to 4%),
Hypotension (in vivo): Cardiovascular: Hypotension (less than 1%), Orthostatic
Opioid withdrawal (in vivo): Opioid withdrawal (less than 1%)
Orthostatic hypotension (in vivo): hypotension (less than 1%), Prolonged QT interval, Syncope
Peripheral edema (in vivo): Cardiovascular: Peripheral edema (1% to less than 5%%)
Pruritus (in vivo): Dermatologic: Pruritus (0% to less than 5%)
Serious side effect, Cardiovascular (in vivo): hypotension (less than 1%), Prolonged QT interval, Syncope
Serious side effect, Neurologic (in vivo): Neurologic: Raised intracranial pressure, Seizure
Serious side effect, Other (in vivo): Other: Drug withdrawal syndrome in neonate of dependent mother,
Serious side effect, Respiratory (in vivo): Respiratory: Respiratory depression
Somnolence (in vivo): Somnolence (1% to 5%), Tremor (3%)
Spasm (in vivo): Musculoskeletal: Spasm (1% to less than 5%)
Tremor (in vivo): Somnolence (1% to 5%), Tremor (3%)
Upper respiratory infection (in vivo): Respiratory: Upper respiratory infection (1% to 3%)
Urinary tract infectious disease (in vivo): Renal: Urinary tract infectious disease (1% to 5%)
Xerostomia (in vivo): 6%), Xerostomia (1% to less than 5%)
